Values after ≈ are worked out from the molar mass of the structure shown. Values joined by “and” are separate entries in the source; they are usually repeats but may differ in a detail not shown here. Equal values may be shown once.
Tests used:
SF-539 = assay: NCI human cancer cell line screen, antiproliferative activity, CNS SF-539; format: cell-based; details: concentration corresponding to 50% growth inhibition, read-out: cytotoxicity GI50, CNS SF-539
Experimental: (§1) The new synthesized brefeldin A prodrug candidates and analogs were examined for antiproliferative activity against human cancer cell lines in the National Cancer Institute screen, in which the activity of each compound was evaluated with approximately 55 different cancer cell lines of diverse tumor origins.

DU-145 = assay: NCI human cancer cell line screen, antiproliferative activity, Prostate DU-145; format: cell-based; details: concentration corresponding to 50% growth inhibition, read-out: cytotoxicity GI50, Prostate DU-145
Experimental: as §1

MDA-MB-435 = assay: NCI human cancer cell line screen, antiproliferative activity, Breast MDA-MB-435; format: cell-based; details: concentration corresponding to 50% growth inhibition, read-out: cytotoxicity GI50, Breast MDA-MB-435
Experimental: as §1

[1] = Solubility of saturated solutions in distilled water, gravimetric; details: distilled water at room temperature, saturated solution
HCT-116 = assay: NCI human cancer cell line screen, antiproliferative activity, Colon HCT-116; format: cell-based; details: concentration corresponding to 50% growth inhibition, read-out: cytotoxicity GI50, Colon HCT-116
Experimental: as §1

HOP-62 = assay: NCI human cancer cell line screen, antiproliferative activity, Lung HOP-62; format: cell-based; details: concentration corresponding to 50% growth inhibition, read-out: cytotoxicity GI50, Lung HOP-62
Experimental: as §1

OVCAR-3 = assay: NCI human cancer cell line screen, antiproliferative activity, Ovarian OVCAR-3; format: cell-based; details: concentration corresponding to 50% growth inhibition, read-out: cytotoxicity GI50, Ovarian OVCAR-3
Experimental: as §1

[2] = test system: all human cancer cell lines successfully tested; assay: NCI screen, mean graph midpoint over approximately 55 cancer cell lines; format: cell-based; details: average GI50 for all cell lines tested (approximately 55), test range 10^-4 to 10^-8 molar
Experimental: as §1

UACC-62 = assay: NCI human cancer cell line screen, antiproliferative activity, Melanoma UACC-62; format: cell-based; details: concentration corresponding to 50% growth inhibition, read-out: cytotoxicity GI50, Melanoma UACC-62
Experimental: as §1

SN12C = assay: NCI human cancer cell line screen, antiproliferative activity, Renal SN12C; format: cell-based; details: concentration corresponding to 50% growth inhibition, read-out: cytotoxicity GI50, Renal SN12C
Experimental: as §1

[3] = buffer, pH 7.4

Compound	GI50 (SF-539) [µM]	GI50 (DU-145) [µM]	GI50 (MDA-MB-435) [µM]	solubility [1] [mg/mL]	GI50 (HCT-116) [µM]	GI50 (HOP-62) [µM]	GI50 (OVCAR-3) [µM]	MGM (mean graph midpoint for growth inhibition) [2]	MGM (mean graph midpoint for growth inhibition) ([2]; listed as brefeldin A) [µM]	GI50 (UACC-62) [µM]	GI50 (SN12C) [µM]	half-life for the conversion of the sulfoxide to brefeldin A [3] [h]
C[C@H]1CCC/C=C/[C@@H]2C[C@H](O)C[C@H]2[C@H](O)/C=C/C(=O)O1 [Compound 1, Brefeldin A]	0.04	0.13	0.041	2.8 (≈ 9.99 mM)	0.029	0.07	0.032	0.041 µM and 0.040 µM	0.040	0.022	0.09	–
CC1CCCC=CC2CC(O)CC2C(O)[C@H](Sc2ccc(O)cc2)CC(=O)O1 (stereo partly drawn) [Compound 3, 2,3-Dihydro-(3R)-(4′-hydroxyphenylthio)brefeldin A]	5.1	6.3	–	–	2.5	3.2	2.4	3.2 µM	–	4.8	4.4	–
CC1CCCC=CC2CC(O)CC2C(O)C(SCCN(C)C)CC(=O)O1 [Compound 4, 2,3-Dihydro-(3R)-(2′-N,N-dimethylaminoethylthiol)brefeldin A]	0.39	2.4	0.5	10 (≈ 25.9 mM)	0.75	–	–	0.68 µM	–	0.43	1.4	–
CC1CCCC=CC2CC(O)CC2C(O)C(SCCO)CC(=O)O1 [Compound 5, 2,3-Dihydro-(3R)-(2′-hydroxyethylthio)brefeldin A]	23	30	34	12 (≈ 33.5 mM)	19	34	27	20 µM	–	40	33	–
CC1CCCC=CC2CC(O)CC2C(O)[C@H](CC(=O)O)CC(=O)O1 (stereo partly drawn) [Compound 6, 2,3-Dihydro-(3R)-(carboxymethyl)brefeldin A]	34	38	42	40 (≈ 118 mM)	23	30	30	33 µM	–	33	39	–
COC(=O)CSC1CC(=O)OC(C)CCCC=CC2CC(O)CC2C1O [Compound 7, 2,3-Dihydro-(3R)-(methoxycarbonylmethylthiol)brefeldin A]	24	30	30	–	19	28	27	17 µM	–	–	32	–
CC1CCCC=CC2CC(O)CC2C(O)[C@H](SCC(O)CO)CC(=O)O1 (stereo partly drawn) [Compound 8, 2,3-Dihydro (3R)-(2′,3′-dihydroxypropylthio) brefeldin A]	32	18	36	–	36	33	22	23 µM	–	16	34	–
CC1CCCC=CC2CC(O)CC2C(O)C(SCCN)CC(=O)O1 [Compound 9, 2,3-Dihydro-(3R)-(2′)-aminoethylthio)brefeldin A]	4.9	–	–	–	3.5	3.9	2.2	2.5 µM	–	2.7	–	–
COc1ccc(S[C@@H]2CC(=O)OC(C)CCCC=CC3CC(O)CC3C2O)cc1 (stereo partly drawn) [Compound 10, 2,3-Dihydro-(3R)-(4′-methoxyphenylthio)brefeldin A]	26	36	19	–	33	24	22	31 µM	–	29	30	–
C[C@H]1CCC/C=C/[C@@H]2C[C@H](O)C[C@H]2[C@H](O)[C@@H](SC[C@H](N)C(=O)O)CC(=O)O1 [Compound 11, 2,3-Dihydro-(3R)-(S-L-cysteinyl)brefeldin A]	–	–	–	35 (≈ 87.2 mM)	–	–	–	–	–	–	–	–
COC(=O)CC[S+]([O-])C1CC(=O)OC(C)CCCC=CC2CC(O)CC2C1O [Compound 13, 2,3-Dihydro-(3R)-(2′-methoxycarbonylethylsulfinyl)brefeldin A]	–	–	–	–	–	–	–	–	–	–	–	87.4
C[C@H]1CCC/C=C/[C@@H]2C[C@H](O)C[C@H]2[C@H](O)[C@H]([S+]([O-])c2ccc(O)cc2)CC(=O)O1 (stereo partly drawn) [Compound 14, 2,3-Dihydro-(3R)-(4′-hydroxyphenylsulfinyl)brefeldin A]	0.017	0.118	0.042	–	0.026	0.088	0.025	0.037 µM	–	0.03	0.05	–
CC1CCCC=CC2CC(O)CC2C(O)[C@H]([S+]([O-])CCO)CC(=O)O1 (stereo partly drawn) [Compound 15, 2,3-Dihydro-(3R)-(2′-hydroxyethylsulfinyl)brefeldin A]	0.058	0.26	0.09	–	0.21	0.29	0.19	0.11 µM	–	0.064	0.65	4.81
CC1CCCC=CC2CC(O)CC2C(O)[C@H]([S+]([O-])CCN)CC(=O)O1 (stereo partly drawn) [Compound 18, 2,3-Dihydro-(3R)-(2′-aminoethylsulfinyl)brefeldin A]	0.02	0.17	0.055	–	0.086	0.15	0.082	0.055 µM	–	0.021	0.12	–
C[C@H]1CCC/C=C/[C@@H]2C[C@H](O)C[C@H]2[C@@H](O)[C@H]([S+]([O-])CCN(C)C)CC(=O)O1 (stereo partly drawn) [Compound 20, 2,3-Dihydro-(3R)-[21-N,N-(dimethylamino)ethylsulfinyl]brefeldin A]	0.3	0.48	0.41	–	0.28	0.35	0.14	0.20 µM	–	0.071	0.15	–
CC1CCCC=CC2CC(O)CC2C(O)C([S+]([O-])C[C@H](N)C(=O)O)CC(=O)O1 (stereo partly drawn) [Compound 21, 2,3-Dihydro-(3R)-(S-L-cysteinyl)brefeldin A Sulfoxide]	0.038	0.43	0.05	–	0.091	0.7	0.039	0.096 µM	–	0.038	0.16	–
C[C@H]1CCC/C=C/[C@@H]2C[C@H](OC(=O)CCC(=O)O)C[C@H]2[C@H](OC(=O)CCC(=O)O)/C=C/C(=O)O1 [Compound 24, Brefeldin A Disuccinate]	> 100	> 100	> 100	–	> 100	> 100	> 100	89 µM	–	> 100	> 100	–
CC1CCCC=CC2CC(OC(=O)CCCC(=O)O)CC2C(OC(=O)CCCC(=O)O)C=CC(=O)O1 (stereo not shown) [Compound 25, Brefeldin A Diglutarate]	> 100	> 100	> 100	–	> 100	> 100	> 100	98 µM	–	> 100	> 100	–
CC1CCCC=CC2CC(O)CC2C(O)C(O)C(O)C(=O)O1 (stereo not shown) [Compound 26, 2,3-Dihydro-2,3-dihydroxybrefeldin A]	0.68	6.7	3.8	–	–	5	2.4	3.0 µM and 2.3 µM	–	1.6	2.7	–
COC(=O)CS(=O)(=O)[C@@H]1CC(=O)OC(C)CCCC=CC2CC(O)CC2C1O (stereo partly drawn) [Compound 27, 2,3-Dihydro(3R)-(methoxycarbonylmethylsulfonyl)brefeldin A]	–	6	5.5	–	3.7	5.1	3.2	3.5 µM	–	5	–	–
Brefeldin A 8 0-Glutarate [Compound 23]	22	30	11	–	21	33	20	13 µM	–	–	32	–
Brefeldin A 8 0-Succinate [Compound 22]	–	–	–	–	–	–	–	2.5 µM	–	–	–	–
